Reference: US20170000749A1, “Methods for Treating Cognitive Disorders Using Inhibitors of Histone Deacetylase” (Forum Pharmaceuticals, Inc., priority 2008, published 2017)
Read-outs that look alike come from different tables or passages of the source.

How the values were obtained:
[1] = tested on: HDAC activity in primary mouse cortical cultures; test: Whole-Cell Histone Deacetylase (HDAC) Inhibition Assay in Primary Mouse Cortical Cultures; type: cell-based; conditions: whole-cell (WC), mouse cortical neurons, read-out: HDAC Inhibition (IC50 μM) WC mouse cortical neurons
Procedure, shortened: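 Primary neocortical neurons from E17 Balb/C mouse embryos were plated at 50000 cells/well and treated at DIV9 with ten-point DMSO dilutions for 16-18 h at 37° C, in triplicate. BOC-Lys(Ac)-AMC substrate was then added for 1 h. Fluor de Lys developer containing 1 uM TSA produced a fluorophore, which was read.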

[2] = biological target: one or more of HDAC-1, HDAC-2, HDAC-3, HDAC-4, HDAC-5, HDAC-6, HDAC-7, HDAC-8, HDAC-9, HDAC-10 and HDAC-11; test: Inhibition of Histone Deacetylase Enzymatic Activity (Boc-Lys(Ac)-AMC substrate, Fluor-de-Lys developer); type: biochemical; conditions: read-out: HDAC Inhibition (IC50 μM) HDAC Enzyme
Method: The following protocol is used to assay the compounds of the disclosure.
The mixture is pre-incubated for 5 minutes at room temperature. The reaction is started by bringing the temperature to 37° C. and adding 16 μl substrate. Total reaction volume is 50 μl.
In the Tables 8, 9 and 10, A≦0.05 μM; 0.05 μM<B≦0.1 μM; 0.1 μM<C≦1 μM; and 1 μM<D≦10 μM.

Compound: O=C(NO)c1cnc(N2CCn3c(nnc3C(F)(F)F)C2)nc1 [N-hydroxy-2-(3-(trifluoromethyl)-5,6-dihydro-[1,2,4]triazolo[4,3-a]pyrazin-7(8H)-yl)pyrimidine-5-carboxamide]
- IC50 ([1]; Table 10): 1 to 5 µM
- IC50 ([2]; Table 10): 0.05 to 0.1 µM

Compound: O=C(NO)c1cnc(N2CCn3c(nnc3-c3ccccc3)C2)nc1 [N-hydroxy-2-(3-phenyl-5,6-dihydro-[1,2,4]triazolo[4,3-a]pyrazin-7(8H)-yl)pyrimidine-5-carboxamide]
- IC50 ([1]; Table 10): 1 to 5 µM
- IC50 ([2]; Table 10): < 0.05 µM

Compound: O=C(Cc1ccc(CN2C(=O)c3ccccc3Oc3ccccc32)cc1)NO [N-hydroxy-2-(4-((11-oxodibenzo[b,f][1,4]oxazepin-10(11H)-yl)methyl)phenyl)acetamide]
- IC50 ([1]; Table 10): 1 to 5 µM
- IC50 ([2]; Table 10): 0.1 to 1 µM

Compound: O=C(NO)c1cnc(N2CC3CC(CN(c4cc(C(F)(F)F)ccn4)C3)C2)nc1 [N-hydroxy-2-(7-(4-(trifluoromethyl)pyridin-2-yl)-3,7-diazabicyclo[3.3.1]nonan-3-yl)pyrimidine-5-carboxamide]
- IC50 ([1]; Table 9): > 15 µM
- IC50 ([2]; Table 9): 0.1 to 1 µM

Compound: O=C(NO)c1cnc(N2C[C@H]3C[C@@H]2CN3c2cc(C(F)(F)F)ccn2)nc1 [N-hydroxy-2-((1R,4R)-5-(4-(trifluoromethyl)pyridin-2-yl)-2,5-diazabicyclo[2.2.1]heptan-2-yl)pyrimidine-5-carboxamide]
- IC50 ([1]; Table 9): < 1 µM
- IC50 ([2]; Table 9): < 0.05 µM

Compound: Cc1cccc(N2C[C@H]3C[C@@H]2CN3c2ncc(C(=O)NO)cn2)c1 [N-hydroxy-2-((1R,4R)-5-m-tolyl-2,5-diazabicyclo[2.2.1]heptan-2-yl)pyrimidine-5-carboxamide]
- IC50 ([1]; Table 9): < 1 µM
- IC50 ([2]; Table 9): 0.05 to 0.1 µM

Compound: Cc1ccc(N2C[C@H]3C[C@@H]2CN3c2ncc(C(=O)NO)cn2)cc1 [N-hydroxy-2-((1R,4R)-5-p-tolyl-2,5-diazabicyclo[2.2.1]heptan-2-yl)pyrimidine-5-carboxamide]
- IC50 ([1]; Table 9): < 1 µM
- IC50 ([2]; Table 9): < 0.05 µM

Compound: O=C(NO)c1cnc(N2C[C@@H]3C[C@H]2CN3c2ccccc2C(F)(F)F)nc1 [N-hydroxy-2-((1S,4S)-5-(2-(trifluoromethyl)phenyl)-2,5-diazabicyclo[2.2.1]heptan-2-yl)pyrimidine-5-carboxamide]
- IC50 ([1]; Table 9): 1 to 5 µM
- IC50 ([2]; Table 9): 0.1 to 1 µM

Compound: O=C(NO)c1cnc(N2C[C@@H]3C[C@H]2CN3c2cc(C(F)(F)F)nc3ccccc23)nc1 [N-hydroxy-2-((1S,4S)-5-(2-(trifluoromethyl)quinolin-4-yl)-2,5-diazabicyclo[2.2.1]heptan-2-yl)pyrimidine-5-carboxamide]
- IC50 ([1]; Table 9): < 1 µM
- IC50 ([2]; Table 9): < 0.05 µM

Compound: O=C(NO)c1cnc(N2C[C@@H]3C[C@H]2CN3c2cccc(OC(F)(F)F)c2)nc1 [N-hydroxy-2-((1S,4S)-5-(3-(trifluoromethoxy)phenyl)-2,5-diazabicyclo[2.2.1]heptan-2-yl)pyrimidine-5-carboxamide]
- IC50 ([1]; Table 9): < 1 µM
- IC50 ([2]; Table 9): < 0.05 µM

Compound: O=C(NO)c1cnc(N2C[C@@H]3C[C@H]2CN3C(=O)c2cccc(C(F)(F)F)c2)nc1 [N-hydroxy-2-((1S,4S)-5-(3-(trifluoromethyl)benzoyl)-2,5-diazabicyclo[2.2.1]heptan-2-yl)pyrimidine-5-carboxamide]
- IC50 ([1]; Table 9): 1 to 5 µM
- IC50 ([2]; Table 9): 0.05 to 0.1 µM

Compound: O=C(NO)c1cnc(N2C[C@@H]3C[C@H]2CN3c2cccc(C(F)(F)F)c2)nc1 [N-hydroxy-2-((1S,4S)-5-(3-(trifluoromethyl)phenyl)-2,5-diazabicyclo[2.2.1]heptan-2-yl)pyrimidine-5-carboxamide]
- IC50 ([1]; Table 9): < 1 µM
- IC50 ([2]; Table 9): < 0.05 µM

Compound: O=C(NO)c1cnc(N2C[C@@H]3C[C@H]2CN3c2cccc(C(F)(F)F)c2)s1 [N-hydroxy-2-((1S,4S)-5-(3-(trifluoromethyl)phenyl)-2,5-diazabicyclo[2.2.1]heptan-2-yl)thiazole-5-carboxamide]
- IC50 ([1]; Table 9): 1 to 5 µM
- IC50 ([2]; Table 9): < 0.05 µM

Compound: O=C(NO)c1cnc(N2C[C@@H]3C[C@H]2CN3c2cccc(SC(F)(F)F)c2)nc1 [N-hydroxy-2-((1S,4S)-5-(3-(trifluoromethylthio)phenyl)-2,5-diazabicyclo[2.2.1]heptan-2-yl)pyrimidine-5-carboxamide]
- IC50 ([1]; Table 9): 1 to 5 µM
- IC50 ([2]; Table 9): < 0.05 µM

Compound: COc1cccc(N2C[C@@H]3C[C@H]2CN3c2ncc(C(=O)NO)cn2)c1 [N-hydroxy-2-((1S,4S)-5-(3-methoxyphenyl)-2,5-diazabicyclo[2.2.1]heptan-2-yl)pyrimidine-5-carboxamide]
- IC50 ([1]; Table 9): < 1 µM
- IC50 ([2]; Table 9): < 0.05 µM

Compound: O=C(NO)c1cnc(N2C[C@@H]3C[C@H]2CN3c2ccc(C(F)(F)F)cc2)nc1 [N-hydroxy-2-((1S,4S)-5-(4-(trifluoromethyl)phenyl)-2,5-diazabicyclo[2.2.1]heptan-2-yl)pyrimidine-5-carboxamide]
- IC50 ([1]; Table 9): 1 to 5 µM
- IC50 ([2]; Table 9): < 0.05 µM

Compound: O=C(NO)c1cnc(N2C[C@@H]3C[C@H]2CN3c2cc(C(F)(F)F)ccn2)nc1 [N-hydroxy-2-((1S,4S)-5-(4-(trifluoromethyl)pyridin-2-yl)-2,5-diazabicyclo[2.2.1]heptan-2-yl)pyrimidine-5-carboxamide]
- IC50 ([1]; Table 9): < 1 µM
- IC50 ([2]; Table 9): < 0.05 µM

Compound: O=C(NO)c1cnc(N2C[C@@H]3C[C@H]2CN3c2nccc(C(F)(F)F)n2)nc1 [N-hydroxy-2-((1S,4S)-5-(4-(trifluoromethyl)pyrimidin-2-yl)-2,5-diazabicyclo[2.2.1]heptan-2-yl)pyrimidine-5-carboxamide]
- IC50 ([1]; Table 9): < 1 µM
- IC50 ([2]; Table 9): < 0.05 µM

Compound: O=C(NO)c1cnc(N2C[C@@H]3C[C@H]2CN3c2cncc(C(F)(F)F)c2)nc1 [N-hydroxy-2-((1S,4S)-5-(5-(trifluoromethyl)pyridin-3-yl)-2,5-diazabicyclo[2.2.1]heptan-2-yl)pyrimidine-5-carboxamide]
- IC50 ([1]; Table 9): < 1 µM
- IC50 ([2]; Table 9): < 0.05 µM

Compound: O=C(NO)c1cnc(N2C[C@@H]3C[C@H]2CN3c2cccc(C(F)(F)F)n2)nc1 [N-hydroxy-2-((1S,4S)-5-(6-(trifluoromethyl)pyridin-2-yl)-2,5-diazabicyclo[2.2.1]heptan-2-yl)pyrimidine-5-carboxamide]
- IC50 ([1]; Table 9): < 1 µM
- IC50 ([2]; Table 9): < 0.05 µM

Compound: O=C(NO)c1cnc(N2C[C@@H]3C[C@H]2CN3C(=O)N2CCCC2)nc1 [N-hydroxy-2-((1S,4S)-5-(pyrrolidine-1-carbonyl)-2,5-diazabicyclo[2.2.1]heptan-2-yl)pyrimidine-5-carboxamide]
- IC50 ([1]; Table 9): < 1 µM
- IC50 ([2]; Table 9): 0.05 to 0.1 µM

Compound: Cc1cccc(N2C[C@@H]3C[C@H]2CN3c2ncc(C(=O)NO)cn2)c1 [N-hydroxy-2-((1S,4S)-5-m-tolyl-2,5-diazabicyclo[2.2.1]heptan-2-yl)pyrimidine-5-carboxamide]
- IC50 ([1]; Table 9): < 1 µM
- IC50 ([2]; Table 9): < 0.05 µM

Compound: Cc1ccccc1N1C[C@@H]2C[C@H]1CN2c1ncc(C(=O)NO)cn1 [N-hydroxy-2-((1S,4S)-5-o-tolyl-2,5-diazabicyclo[2.2.1]heptan-2-yl)pyrimidine-5-carboxamide]
- IC50 ([1]; Table 9): 1 to 5 µM
- IC50 ([2]; Table 9): 0.05 to 0.1 µM

Compound: Cc1ccc(N2C[C@@H]3C[C@H]2CN3c2ncc(C(=O)NO)cn2)cc1 [N-hydroxy-2-((1S,4S)-5-p-tolyl-2,5-diazabicyclo[2.2.1]heptan-2-yl)pyrimidine-5-carboxamide]
- IC50 ([1]; Table 9): < 1 µM
- IC50 ([2]; Table 9): < 0.05 µM

Compound: O=C(NO)c1cnc(N2C[C@@H]3C[C@H]2CN3c2ccccc2)nc1 [N-hydroxy-2-((1S,4S)-5-phenyl-2,5-diazabicyclo[2.2.1]heptan-2-yl)pyrimidine-5-carboxamide]
- IC50 ([1]; Table 9): < 1 µM
- IC50 ([2]; Table 9): 0.05 to 0.1 µM
